Key:
[1] = test system: HSC2; test: relative IC50 (inflection point of fitted dose-response curve, CellTiter-Glo viability, 72 h; top asymptote may be below 50% inhibition); higher = less potent
How it was run: (§1)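 For this screen, 384-well plates were preprinted with each compound at five concentrations in 10-fold steps and seeded with MPNST cell lines or primary human Schwann cells at 750–1000 cells per well. Incubation lasted 72 h at 37 °C, 5% CO2, and CellTiter-Glo ATP luminescence, scaled between vehicle and positive-control wells and averaged over duplicates where available, served as viability. Logistic fits with four parameters were applied. Relative IC50 (censored at the top concentration) and drug sensitivity score derive from these fits, and percent inhibition is at the top concentration.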

[2] = test system: S462; test: as above
How it was run: as §1

[3] = test system: S1507-2; test: relative IC50 (inflection point of fitted dose-response curve, CellTox-Green cytotoxicity, 72 h; top asymptote may be below 50%); higher = less potent
How it was run: (§2)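 MPNST cell lines and primary human Schwann cells were grown for 72 h at 37 °C in 384-well plates containing five 10-fold compound dilutions. CellTox-Green, added before seeding at a final 1:1000 dilution, gave fluorescence from DNA released by disrupted cells, and signals were scaled to vehicle and positive-control wells. Curves were fitted with a four-parameter logistic model. Drug sensitivity score and relative IC50 come from these fits, with IC50 censored at the top concentration.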

[4] = test system: HSC1; test: as above
How it was run: as §2

[5] = test system: HSC2; test: as above
How it was run: as §2

[6] = test system: ST8814; test: as above
How it was run: as §2

[7] = test system: STS26T; test: as above
How it was run: as §2

[8] = test system: HSC1; test: relative IC50 (inflection point of fitted dose-response curve, CellTiter-Glo viability, 72 h; top asymptote may be below 50% inhibition); higher = less potent
How it was run: as §1

[9] = test system: HS-PSS; test: as above
How it was run: as §1

[10] = test system: STS26T; test: as above
How it was run: as §1

[11] = test system: HS-PSS; test: relative IC50 (inflection point of fitted dose-response curve, CellTox-Green cytotoxicity, 72 h; top asymptote may be below 50%); higher = less potent
How it was run: as §2

[12] = test system: YST-1; test: relative IC50 (inflection point of fitted dose-response curve, CellTiter-Glo viability, 72 h; top asymptote may be below 50% inhibition); higher = less potent
How it was run: as §1

[13] = test system: ST8814; test: as above
How it was run: as §1

[14] = test system: HS-Sch-2; test: as above
How it was run: as §1

Row | SMILES | relative IC50 [1] [µM] | relative IC50 [2] [µM] | relative IC50 [3] [µM] | relative IC50 [4] [µM] | relative IC50 [5] [µM] | relative IC50 [6] [µM] | relative IC50 [7] [µM] | relative IC50 [8] [µM] | relative IC50 [9] [µM] | relative IC50 [10] [µM] | relative IC50 [11] [µM] | relative IC50 [12] [µM] | relative IC50 [13] [µM] | relative IC50 [14] [µM]
1 | Cn1cnc2c(F)c(Nc3ccc(Br)cc3F)c(C(=O)NOCCO)cc21 [MEK-162] | > 1 | 0.124 | > 1 | > 1 | > 1 | > 1 | > 1 |  |  |  |  |  |  | 
2 | C[C@H]1C[C@@H]2[C@H]([C@@H](O)C[C@@]3(C)[C@H]2CC[C@]3(O)C(=O)CO)[C@@]2(C)C=CC(=O)C=C12 [Methylprednisolone] | > 10 |  | > 10 | > 10 | > 10 | > 10 | > 10 | > 10 | > 10 | > 10 | > 10 |  |  | 
3 | CC(=O)OC[C@H]1O[C@@H]([S-])[C@H](OC(C)=O)[C@@H](OC(C)=O)[C@@H]1OC(C)=O.CCP(CC)CC.[Au+] [Auranofin] | 0.462 | 0.449 | > 2.5 | 0.516 | 0.575 |  | 0.697 | 0.387 | 0.668 | 0.61 | 0.754 | 0.805 | 0.779 | 0.362
4 | CNC(=O)c1cc(Oc2ccc(NC(=O)Nc3ccc(Cl)c(C(F)(F)F)c3)c(F)c2)ccn1 [Regorafenib] | 2.05 | 1.7 | > 10 | > 10 | > 10 | 3.16 |  | 2.77 | 3.58 | 1.69 | > 10 | 1.7 | 1.34 | 3.57
5 | C=CC[C@@H]1/C=C(\C)C[C@H](C)C[C@H](OC)[C@H]2O[C@@](O)(C(=O)C(=O)N3CCCC[C@H]3C(=O)O[C@H](/C(C)=C/[C@@H]3CC[C@@H](O)[C@H](OC)C3)[C@H](C)[C@@H](O)CC1=O)[C@H](C)C[C@@H]2OC [Tacrolimus] | > 10 | > 10 | > 10 | > 10 | > 10 | > 10 | > 10 |  | > 10 | > 10 | > 10 | > 10 |  | > 10
6 | NC(=O)NO [Hydroxyurea] |  | > 100 | > 100 | > 100 | > 100 | > 100 | > 100 |  | > 100 | > 100 | > 100 |  | > 100 | 
7 | N[C@@H](Cc1ccc(N(CCCl)CCCl)cc1)C(=O)O [Melphalan aq] | > 12.5 | > 12.5 | > 12.5 | > 12.5 | > 12.5 | > 12.5 | > 12.5 |  |  | > 12.5 |  |  | > 12.5 | 
8 | Sc1ncnc2nc[nH]c12 [Mercaptopurine] | > 10 | 1.46 | > 10 | > 10 | > 10 | > 10 |  | > 10 |  | 1.27 | > 10 |  | 0.193 | 0.64
9 | O=c1[nH]cc(F)c(=O)[nH]1 [Fluorouracil] | 3.29 |  | > 10 | > 10 | > 10 | > 10 |  | 3.58 | 3.57 | 0.907 | > 10 | 3.28 | > 10 | 2.87
10 | O=C(O)CNC(=O)c1c(O)c2ccccc2n(Cc2ccccc2)c1=O [IOX-2] |  |  | > 50 | > 50 | > 50 | > 50 | > 50 | > 50 | 10.3 |  | > 50 |  | 8.42 | 12.5
11 | CC(C)(C)c1cc(NC(=O)Nc2ccc(-c3cn4c(n3)sc3cc(OCCN5CCOCC5)ccc34)cc2)no1 [Quizartinib] | 0.402 | 0.179 | > 1 | > 1 | > 1 | > 1 | > 1 | 0.197 | > 1 |  | > 1 | 0.153 |  | 
12 | CCS(=O)(=O)c1cccc(-c2cc(C(=O)NC3CCN(C)CC3)c(C)c3[nH]c4ncc(C)cc4c23)c1 [TAK-901] | 0.0725 | 0.122 | > 1 |  | 0.183 | 0.134 | 0.0623 | 0.111 | 0.15 | 0.112 | > 1 | 0.0633 | 0.267 | 0.327
13 | CN[C@@H](C)C(=O)N[C@H]1CN(C(=O)CC(C)C)CC[C@H]2CC[C@@H](C(=O)NC(c3ccccc3)c3ccccc3)N2C1=O [AT-406] | > 10 | > 10 | 0.0583 | > 10 | > 10 | > 10 | 0.0199 | > 10 |  | 0.0972 | > 10 | > 10 | > 10 | 
14 | O=C(c1ccc(C(=O)N2CCC(N3CCCC3)CC2)c(Nc2ccccc2)c1)N1CCC(N2CCCC2)CC1 [UNC1215] | > 30 | > 30 | > 30 | > 30 | > 30 | > 30 |  | > 30 |  | > 30 | > 30 | > 30 |  | 
15 | O=c1[nH]c(=O)n([C@H]2C[C@H](O)[C@@H](CO)O2)cc1F [Floxuridine] | 0.127 | 0.0534 | > 10 | 3.23 |  | 0.729 | 0.253 | 0.752 | 1.48 | 0.0379 | > 10 | 0.101 | 0.123 | 0.173
16 | CN1CCN(c2nc(C3=C(c4c[nH]c5ccccc45)C(=O)NC3=O)c3ccccc3n2)CC1 [Sotrastaurin] | > 10 |  | > 10 | > 10 | > 10 | > 10 | > 10 | > 10 | > 10 | > 10 | > 10 |  |  | > 10

Row | SMILES | relative IC50 [1] [µM] | relative IC50 [2] [µM] | relative IC50 [3] [µM] | relative IC50 [4] [µM] | relative IC50 [5] [µM] | relative IC50 [6] [µM] | relative IC50 [7] [µM] | relative IC50 [8] [µM] | relative IC50 [9] [µM] | relative IC50 [10] [µM] | relative IC50 [11] [µM] | relative IC50 [12] [µM] | relative IC50 [13] [µM] | relative IC50 [14] [µM]
17 | CCCS(=O)(=O)Nc1ccc(F)c(C(=O)c2c[nH]c3ncc(-c4ccc(Cl)cc4)cc23)c1F [Vemurafenib] | 1.46 | > 10 | > 10 | > 10 | > 10 |  | 1.17 | 1.74 | 3.73 | 1.84 | > 10 | > 10 | > 10 | 3.92
18 | O=C1CCC(N2C(=O)c3ccccc3C2=O)C(=O)N1 (configuration not stated) [Thalidomide] | > 10 | > 10 | > 10 | > 10 | > 10 | > 10 |  | > 10 | > 10 | > 10 | > 10 | > 10 |  | 
19 | CC[C@H](Nc1ncnc2[nH]cnc12)c1nc2cccc(F)c2c(=O)n1-c1ccccc1 [Idelalisib] | > 10 | > 10 | > 10 | > 10 | 0.511 | > 10 |  | > 10 | > 10 | 1.54 | > 10 | 1.04 |  | > 10
20 | Cc1ccc(C(=O)N(CCCN)[C@@H](c2oc3cc(Cl)ccc3c(=O)c2Cc2ccccc2)C(C)C)cc1 | > 0.1 |  | > 0.1 | > 0.1 | > 0.1 | > 0.1 | > 0.1 | > 0.1 | 0.00129 | > 0.1 | > 0.1 | 0.00094 | > 0.1 | 0.00166
21 | Cc1ccc(F)c(NC(=O)Nc2ccc(-c3cccc4[nH]nc(N)c34)cc2)c1 [Linifanib] |  |  | > 1 | > 1 | > 1 | > 1 | > 1 | > 1 | > 1 | > 1 | > 1 | > 1 |  | > 1
22 | Nc1cccc2c1CN(C1CCC(=O)NC1=O)C2=O (configuration not stated) [Lenalidomide] |  | > 10 | > 10 | > 10 | 1.87 | > 10 | > 10 |  | > 100 | > 10 | > 100 |  | > 10 | 
23 | CN(Cc1cnc2nc(N)nc(N)c2n1)c1ccc(C(=O)N[C@@H](CCC(=O)O)C(=O)O)cc1 [Methotrexate] |  | 0.0276 | > 5 | > 5 | > 5 |  | 0.314 | > 5 | > 5 | 0.0149 | > 5 | 0.0609 | 0.195 | 0.0892
24 | C[C@]12C=CC(=O)C=C1CC[C@@H]1[C@@H]2[C@@H](O)C[C@@]2(C)[C@H]1CC[C@]2(O)C(=O)CO [Prednisolone] | > 10 | > 10 | > 10 | > 10 | > 10 | > 10 | > 10 | > 10 | > 10 | > 10 | > 10 |  |  | > 10
25 | CC(C)n1cnc2c(NCCc3ccc(O)cc3)nc(-c3csc4ccccc34)nc21 [StemRegenin 1] | 2.2 |  | > 10 | > 10 | > 10 | > 10 |  | 3.83 | 3.2 | 3.83 | > 10 | > 10 | 2.52 | 3.54
26 | Nc1nc(F)nc2c1ncn2[C@@H]1O[C@H](CO)[C@@H](O)[C@@H]1O [Fludarabine] | 2.72 |  | > 10 | > 10 | > 10 | > 10 | > 10 | 3.61 |  | 1.65 | > 10 | 3.48 | > 10 | 2.2
27 | Cn1nnc2c(C(N)=O)ncn2c1=O [Temozolomide] | > 10 | > 10 | > 10 | > 10 | > 10 | > 10 | > 10 | > 10 |  | > 10 | > 100 |  |  | 
28 | C[C@@H]1C[C@H]2[C@@H]3CCC4=CC(=O)C=C[C@]4(C)[C@@]3(F)[C@@H](O)C[C@]2(C)[C@@]1(O)C(=O)CO [Dexamethasone] | > 10 |  | > 10 | > 10 | > 10 | > 10 | > 10 | > 10 | > 10 | > 10 | > 10 |  |  | 
29 | C=C1C[C@@H]2[C@H](CC[C@]3(C)C(=O)CC[C@@H]23)[C@@]2(C)C=CC(=O)C=C12 [Exemestane] | > 10 |  | > 10 | > 10 | > 10 | > 10 | > 10 | > 10 | 1.76 | > 10 | > 10 | > 10 | > 10 | 
30 | CCCCCCCCCCCCCCCCCCOP(=O)([O-])OC1CC[N+](C)(C)CC1 [Perifosine aq/PBS] | > 2.5 |  | > 2.5 | > 2.5 | > 2.5 |  | 0.963 | > 2.5 |  | 0.602 |  |  |  | 
31 | COc1cc2c(N3CCN(C(=O)Nc4ccc(OC(C)C)cc4)CC3)ncnc2cc1OCCCN1CCCCC1 [Tandutinib] | > 1 | > 1 | > 1 | > 1 | > 1 | > 1 | > 1 | > 1 |  | > 1 | > 1 | > 1 | > 1 | > 1
